# Laboratory results as given in patent US10392397B2, “Heterocyclic thiosemicarbazone derivatives and their therapeutical applications” (NANTBIO, INC., priority 2015, dated 2019).
# Columns and labels:
# Format in all cases: cell-based
# HCC-2998 = test: SRB growth inhibition, HCC-2998; conditions: Homo sapiens, HCC-2998, Colon Cancer, 48 h
# Protocol: (§1) Human tumor cell lines were grown in RPM(1640 medium containing 5% fetal bovine serum and 2 mM L-glutamine. For a typical screening experiment, cells were inoculated into 96 well microtiter plates in 100 μL at plating densities ranging from 5,000 to 40,000 cells/well depending on the doubling time of individual cell lines. After cell inoculation, the microtiter plates were incubated at 37° C., 5% CO2, 95% air and 100% relative humidity for 24 h prior to addition of Compound 3 above.
# (§2) After 24 h, two plates of each cell line were fixed in situ with TCA, to represent a measurement of the cell population for each cell line at the time of drug addition (Tz). […]
# (§3) Following drug addition, the plates were incubated for an additional 48 h at 37° C., 5% CO2, 95% air, and 100% relative humidity. […] Bound stain was subsequently solubilized with 10 mM trizma base, and the absorbance was read on an automated plate reader at a wavelength of 515 nm. […] Using the seven absorbance measurements [time zero, (Tz), control growth, (C), and test growth in the presence of drug at the five concentration levels (Ti)], the percentage growth was calculated at each of the drug concentrations levels. Percentage growth inhibition was calculated as: [(Ti-Tz)/(C-Tz)]×100 for concentrations for which Ti>/=Tz [(Ti-Tz)/Tz]×100 for concentrations for which Ti<Tz. […]
# UACC-257 = test: SRB growth inhibition, UACC-257; conditions: Homo sapiens, UACC-257, Melanoma, 48 h
# Protocol: as §1, §2, §3
# SF-539 = test: SRB growth inhibition, SF-539; conditions: Homo sapiens, SF-539, CNS Cancer, 48 h
# Protocol: as §1, §2, §3
# KM12 = test: SRB growth inhibition, KM12; conditions: Homo sapiens, KM12, Colon Cancer, 48 h
# Protocol: as §1, §2, §3
# CCRF-CEM = test: SRB growth inhibition, CCRF-CEM; conditions: Homo sapiens, Leukemia, 48 h
# Protocol: as §1, §2, §3
# A549/ATCC = test: SRB growth inhibition, A549/ATCC; conditions: Homo sapiens, Non-Small Cell Lung Cancer, 48 h
# Protocol: as §1, §2, §3
# SNB-75 = test: SRB growth inhibition, SNB-75; conditions: Homo sapiens, SNB-75, CNS Cancer, 48 h
# Protocol: as §1, §2, §3
# K-562 = test: SRB growth inhibition, K-562; conditions: Homo sapiens, K562, K-562, Leukemia, 48 h
# Protocol: as §1, §2, §3
# NCI/ADR-RES = test: SRB growth inhibition, NCI/ADR-RES; conditions: Homo sapiens, Ovarian Cancer, 48 h
# Protocol: as §1, §2, §3
# HCT-15 = test: SRB growth inhibition, HCT-15; conditions: Homo sapiens, HCT-15, Colon Cancer, 48 h
# Protocol: as §1, §2, §3
# RPMI-8226 = test: SRB growth inhibition, RPMI-8226; conditions: Homo sapiens, RPMI-8226, Leukemia, 48 h
# Protocol: as §1, §2, §3
# MDA-MB-435 = test: SRB growth inhibition, MDA-MB-435; conditions: Homo sapiens, MDA-MB-435, Melanoma, 48 h
# Protocol: as §1, §2, §3
# EKVX = test: SRB growth inhibition, EKVX; conditions: Homo sapiens, Non-Small Cell Lung Cancer, 48 h
# Protocol: as §1, §2, §3
# SF-268 = test: SRB growth inhibition, SF-268; conditions: Homo sapiens, SF-268, CNS Cancer, 48 h
# Protocol: as §1, §2, §3
# UACC-62 = test: SRB growth inhibition, UACC-62; conditions: Homo sapiens, UACC-62, Melanoma, 48 h
# Protocol: as §1, §2, §3
# SR = test: SRB growth inhibition, SR; conditions: Homo sapiens, Leukemia, 48 h
# Protocol: as §1, §2, §3
# SK-MEL-28 = test: SRB growth inhibition, SK-MEL-28; conditions: Homo sapiens, SK-MEL-28, Melanoma, 48 h
# Protocol: as §1, §2, §3
# HS 578T = test: SRB growth inhibition, HS 578T; conditions: Homo sapiens, Breast Cancer, 48 h
# Protocol: as §1, §2, §3
# OVCAR-8 = test: SRB growth inhibition, OVCAR-8; conditions: Homo sapiens, OVCAR-8, Ovarian Cancer, 48 h
# Protocol: as §1, §2, §3
# OVCAR-4 = test: SRB growth inhibition, OVCAR-4; conditions: Homo sapiens, OVCAR-4, Ovarian Cancer, 48 h
# Protocol: as §1, §2, §3
# HL-60(TB) = test: SRB growth inhibition, HL-60(TB); conditions: Homo sapiens, Leukemia, 48 h
# Protocol: as §1, §2, §3
# NCI-H23 = test: SRB growth inhibition, NCI-H23; conditions: Homo sapiens, NCI-H23, Non-Small Cell Lung Cancer, 48 h
# Protocol: as §1, §2, §3
# HOP-92 = test: SRB growth inhibition, HOP-92; conditions: Homo sapiens, HOP-92, Non-Small Cell Lung Cancer, 48 h
# Protocol: as §1, §2, §3
# MALME-3M = test: SRB growth inhibition, MALME-3M; conditions: Homo sapiens, Melanoma, 48 h
# Protocol: as §1, §2, §3
# DU-145 = test: SRB growth inhibition, DU-145; conditions: Homo sapiens, DU-145, Prostate Cancer, 48 h
# Protocol: as §1, §2, §3
# MOLT-4 = test: SRB growth inhibition, MOLT-4; conditions: Homo sapiens, MOLT-4, Leukemia, 48 h
# Protocol: as §1, §2, §3
# SK-OV-3 = test: SRB growth inhibition, SK-OV-3; conditions: Homo sapiens, SK-OV-3, Ovarian Cancer, 48 h
# Protocol: as §1, §2, §3
# ACHN = test: SRB growth inhibition, ACHN; conditions: Homo sapiens, Renal Cancer, 48 h
# Protocol: as §1, §2, §3
# OVCAR-3 = test: SRB growth inhibition, OVCAR-3; conditions: Homo sapiens, OVCAR-3, Ovarian Cancer, 48 h
# Protocol: as §1, §2, §3
# SNB-19 = test: SRB growth inhibition, SNB-19; conditions: Homo sapiens, SNB-19, CNS Cancer, 48 h
# Protocol: as §1, §2, §3
compound,measurement,setting,value
"S=C(N/N=C1/CCOc2cccnc21)N1CCN(c2ccccn2)CC1 [Example 3, (Z)—N′-(2H-pyrano[3,2-b]pyridin-4(3H)-ylidene)-4-(pyridin-2-yl)piperazine-1-carbothiohydrazide]",GI50,HCC-2998,701 nM
same,GI50,UACC-257,11.8 nM
same,GI50,SF-539,1160 nM
same,GI50,KM12,225 nM
same,GI50,CCRF-CEM,< 10 nM
same,GI50,A549/ATCC,155 nM
same,GI50,SNB-75,1080 nM
same,GI50,K-562,< 10 nM
same,GI50,NCI/ADR-RES,37.4 nM
same,GI50,HCT-15,< 10 nM
same,GI50,RPMI-8226,< 10 nM
same,GI50,MDA-MB-435,271 nM
same,GI50,EKVX,140 nM
same,GI50,SF-268,410 nM
same,GI50,UACC-62,170 nM
same,GI50,SR,65.5 nM
same,GI50,SK-MEL-28,472 nM
same,GI50,HS 578T,754 nM
same,GI50,OVCAR-8,37.4 nM
same,GI50,OVCAR-4,16.5 nM
same,GI50,HL-60(TB),14.9 nM
same,GI50,NCI-H23,32.1 nM
same,GI50,HOP-92,16.7 nM
same,GI50,MALME-3M,1290 nM
same,GI50,DU-145,345 nM
same,GI50,MOLT-4,< 10 nM
same,GI50,SK-OV-3,82 nM
same,GI50,ACHN,196 nM
same,GI50,OVCAR-3,< 10 nM
same,GI50,SNB-19,433 nM
